Measured values: ChEMBL document CHEMBL5096151, “Phytocannabinoid Pharmacology: Medicinal Properties of Cannabis sativa Constituents Aside from the "Big Two"” (J Nat Prod, 2021)

Tests used:
[1] = target: T1, Transient receptor potential cation channel subfamily V member 2 (Homo sapiens, UniProt Q9Y5S1); assay: Agonist activity at ionomycin-stimulated TRPV2 (unknown origin) channel desensitization in presence of lysophosphatidylcholine
T1 sequence (Q9Y5S1 whole entry): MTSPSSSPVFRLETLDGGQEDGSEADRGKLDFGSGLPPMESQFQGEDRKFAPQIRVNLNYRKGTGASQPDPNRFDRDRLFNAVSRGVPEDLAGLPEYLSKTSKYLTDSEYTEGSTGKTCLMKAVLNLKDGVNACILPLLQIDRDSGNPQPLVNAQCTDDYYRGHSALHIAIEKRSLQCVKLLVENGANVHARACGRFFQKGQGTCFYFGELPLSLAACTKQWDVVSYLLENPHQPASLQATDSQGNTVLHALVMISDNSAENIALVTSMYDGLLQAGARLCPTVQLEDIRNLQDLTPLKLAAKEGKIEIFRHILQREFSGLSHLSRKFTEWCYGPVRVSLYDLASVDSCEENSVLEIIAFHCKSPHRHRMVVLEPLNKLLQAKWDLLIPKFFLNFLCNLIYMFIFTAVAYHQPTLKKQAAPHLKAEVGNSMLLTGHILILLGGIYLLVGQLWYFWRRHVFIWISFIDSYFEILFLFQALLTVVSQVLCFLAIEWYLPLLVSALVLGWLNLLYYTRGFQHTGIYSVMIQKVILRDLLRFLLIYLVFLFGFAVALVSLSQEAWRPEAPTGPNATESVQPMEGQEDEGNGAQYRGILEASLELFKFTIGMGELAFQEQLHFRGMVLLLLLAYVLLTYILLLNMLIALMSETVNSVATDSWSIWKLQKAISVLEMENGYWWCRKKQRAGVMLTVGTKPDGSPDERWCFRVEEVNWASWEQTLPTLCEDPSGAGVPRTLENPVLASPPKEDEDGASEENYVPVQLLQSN

[2] = target: T2, Transient receptor potential cation channel subfamily V member 3 (Homo sapiens, UniProt Q8NET8); assay: Agonist activity at ionomycin-stimulated TRPV3 (unknown origin) channel desensitization in presence of carvacrol
T2 sequence (Q8NET8 whole entry): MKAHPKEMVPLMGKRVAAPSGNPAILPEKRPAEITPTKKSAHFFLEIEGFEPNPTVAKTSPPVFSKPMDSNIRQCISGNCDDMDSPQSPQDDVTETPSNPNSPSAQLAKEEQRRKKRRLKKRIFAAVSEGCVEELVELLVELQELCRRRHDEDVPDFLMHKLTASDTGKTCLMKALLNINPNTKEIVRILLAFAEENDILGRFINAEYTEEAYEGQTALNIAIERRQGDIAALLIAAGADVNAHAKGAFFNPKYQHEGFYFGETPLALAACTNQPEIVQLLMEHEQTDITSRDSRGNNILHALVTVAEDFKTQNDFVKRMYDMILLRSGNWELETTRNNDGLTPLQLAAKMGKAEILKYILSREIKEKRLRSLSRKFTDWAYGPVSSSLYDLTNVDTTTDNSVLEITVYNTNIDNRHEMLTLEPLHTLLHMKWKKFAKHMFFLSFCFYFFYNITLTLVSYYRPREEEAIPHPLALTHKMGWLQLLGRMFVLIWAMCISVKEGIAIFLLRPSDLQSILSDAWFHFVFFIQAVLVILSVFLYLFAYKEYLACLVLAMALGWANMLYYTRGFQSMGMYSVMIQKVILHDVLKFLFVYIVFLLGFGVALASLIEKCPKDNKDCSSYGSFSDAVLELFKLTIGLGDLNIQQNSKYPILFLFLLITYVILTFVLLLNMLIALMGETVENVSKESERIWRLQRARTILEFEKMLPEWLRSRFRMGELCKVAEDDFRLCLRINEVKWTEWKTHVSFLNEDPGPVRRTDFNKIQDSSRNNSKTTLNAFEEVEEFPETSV

[3] = target: T3, Transient receptor potential cation channel subfamily A member 1 (Homo sapiens, UniProt O75762); assay: Agonist activity at TRPA1 (unknown origin) channel desensitization in presence of icilin
T3 sequence (O75762 whole entry): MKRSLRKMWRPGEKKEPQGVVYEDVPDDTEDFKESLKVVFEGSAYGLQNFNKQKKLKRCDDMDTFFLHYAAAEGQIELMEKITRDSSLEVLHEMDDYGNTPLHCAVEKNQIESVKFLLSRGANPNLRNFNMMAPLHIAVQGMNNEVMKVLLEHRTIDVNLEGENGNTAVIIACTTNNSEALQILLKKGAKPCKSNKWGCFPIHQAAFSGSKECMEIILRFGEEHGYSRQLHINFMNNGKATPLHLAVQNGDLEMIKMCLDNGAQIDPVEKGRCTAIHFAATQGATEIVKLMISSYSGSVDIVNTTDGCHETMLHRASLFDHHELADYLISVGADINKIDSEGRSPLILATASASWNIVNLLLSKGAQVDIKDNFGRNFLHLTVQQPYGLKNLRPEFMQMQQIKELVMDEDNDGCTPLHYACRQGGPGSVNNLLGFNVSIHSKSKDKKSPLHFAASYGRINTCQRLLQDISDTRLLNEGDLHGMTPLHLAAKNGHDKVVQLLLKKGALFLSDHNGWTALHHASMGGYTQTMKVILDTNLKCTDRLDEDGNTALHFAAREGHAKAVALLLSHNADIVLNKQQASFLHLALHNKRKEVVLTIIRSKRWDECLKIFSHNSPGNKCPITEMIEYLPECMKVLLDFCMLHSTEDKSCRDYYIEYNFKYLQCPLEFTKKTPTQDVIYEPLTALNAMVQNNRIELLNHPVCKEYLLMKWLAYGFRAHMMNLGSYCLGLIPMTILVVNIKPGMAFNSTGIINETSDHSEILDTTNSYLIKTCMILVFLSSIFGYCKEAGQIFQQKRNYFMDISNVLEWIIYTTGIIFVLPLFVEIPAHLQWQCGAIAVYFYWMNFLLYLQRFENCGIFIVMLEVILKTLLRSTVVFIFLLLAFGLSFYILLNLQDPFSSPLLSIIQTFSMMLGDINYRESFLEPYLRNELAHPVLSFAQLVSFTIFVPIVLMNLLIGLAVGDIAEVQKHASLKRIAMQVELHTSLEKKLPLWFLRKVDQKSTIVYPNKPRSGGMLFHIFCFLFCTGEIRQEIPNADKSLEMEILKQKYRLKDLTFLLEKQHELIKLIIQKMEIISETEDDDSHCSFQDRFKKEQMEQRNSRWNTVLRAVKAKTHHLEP

[4] = target: T3, Transient receptor potential cation channel subfamily A member 1; assay: Agonist activity at TRPA1 (unknown origin) activation assessed as efficacy relative to control; settings: filed as agonist
[5] = target: T3, Transient receptor potential cation channel subfamily A member 1; assay: Agonist activity at TRPA1 (unknown origin) channel desensitization in presence of isothiocyanate
[6] = target: T4, Transient receptor potential cation channel subfamily V member 4 (Homo sapiens, UniProt Q9HBA0); assay: Agonist activity at ionomycin-stimulated TRPV4 (unknown origin) activation
T4 sequence (Q9HBA0 whole entry): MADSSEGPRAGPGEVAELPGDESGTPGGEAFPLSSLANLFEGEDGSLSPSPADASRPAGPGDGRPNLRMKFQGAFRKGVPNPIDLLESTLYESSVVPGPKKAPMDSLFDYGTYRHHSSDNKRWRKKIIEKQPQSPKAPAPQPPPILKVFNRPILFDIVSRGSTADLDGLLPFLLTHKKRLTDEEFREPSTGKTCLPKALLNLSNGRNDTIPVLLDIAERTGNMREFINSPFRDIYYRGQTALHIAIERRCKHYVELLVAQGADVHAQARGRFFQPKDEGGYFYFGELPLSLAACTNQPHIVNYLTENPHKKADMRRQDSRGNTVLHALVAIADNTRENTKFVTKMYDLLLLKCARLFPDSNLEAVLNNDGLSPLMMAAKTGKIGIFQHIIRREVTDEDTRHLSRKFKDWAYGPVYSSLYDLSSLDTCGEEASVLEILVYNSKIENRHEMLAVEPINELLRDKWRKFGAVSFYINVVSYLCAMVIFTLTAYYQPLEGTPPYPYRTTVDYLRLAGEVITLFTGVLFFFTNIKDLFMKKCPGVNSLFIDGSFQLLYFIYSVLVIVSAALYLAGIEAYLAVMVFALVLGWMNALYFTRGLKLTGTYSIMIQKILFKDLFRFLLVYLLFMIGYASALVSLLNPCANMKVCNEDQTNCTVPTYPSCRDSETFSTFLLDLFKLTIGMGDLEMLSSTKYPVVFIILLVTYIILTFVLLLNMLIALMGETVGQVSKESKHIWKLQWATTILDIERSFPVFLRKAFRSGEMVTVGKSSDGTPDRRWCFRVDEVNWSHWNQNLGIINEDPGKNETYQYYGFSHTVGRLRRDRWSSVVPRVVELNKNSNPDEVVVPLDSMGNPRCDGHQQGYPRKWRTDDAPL

[7] = target: T4, Transient receptor potential cation channel subfamily V member 4; assay: Agonist activity at ionomycin-stimulated TRPV4 (unknown origin) channel desensitization in presence of 4alphaPDD
[8] = target: T2, Transient receptor potential cation channel subfamily V member 3; assay: Agonist activity at ionomycin-stimulated TRPV3 (unknown origin) activation
[9] = target: T4, Transient receptor potential cation channel subfamily V member 4; assay: Agonist activity at ionomycin-stimulated TRPV4 (unknown origin) activation assessed as efficacy relative to control
[10] = target: T5, Transient receptor potential cation channel subfamily V member 3 (Homo sapiens) (UniProt Q8NET8); assay: Agonist activity at ionomycin-stimulated TRPV3 (unknown origin) activation assessed as efficacy relative to control; settings: filed as agonist
T5 sequence (whole entry): T2 sequence (Q8NET8 whole entry)

[11] = target: T1, Transient receptor potential cation channel subfamily V member 2; assay: Agonist activity at ionomycin-stimulated TRPV2 (unknown origin) activation
[12] = target: T6, Transient receptor potential cation channel subfamily V member 1 (Homo sapiens, UniProt Q8NER1); assay: Agonist activity at ionomycin-stimulated TRPV1 (unknown origin) activation assessed as efficacy relative to control; settings: filed as agonist
T6 sequence (Q8NER1 whole entry): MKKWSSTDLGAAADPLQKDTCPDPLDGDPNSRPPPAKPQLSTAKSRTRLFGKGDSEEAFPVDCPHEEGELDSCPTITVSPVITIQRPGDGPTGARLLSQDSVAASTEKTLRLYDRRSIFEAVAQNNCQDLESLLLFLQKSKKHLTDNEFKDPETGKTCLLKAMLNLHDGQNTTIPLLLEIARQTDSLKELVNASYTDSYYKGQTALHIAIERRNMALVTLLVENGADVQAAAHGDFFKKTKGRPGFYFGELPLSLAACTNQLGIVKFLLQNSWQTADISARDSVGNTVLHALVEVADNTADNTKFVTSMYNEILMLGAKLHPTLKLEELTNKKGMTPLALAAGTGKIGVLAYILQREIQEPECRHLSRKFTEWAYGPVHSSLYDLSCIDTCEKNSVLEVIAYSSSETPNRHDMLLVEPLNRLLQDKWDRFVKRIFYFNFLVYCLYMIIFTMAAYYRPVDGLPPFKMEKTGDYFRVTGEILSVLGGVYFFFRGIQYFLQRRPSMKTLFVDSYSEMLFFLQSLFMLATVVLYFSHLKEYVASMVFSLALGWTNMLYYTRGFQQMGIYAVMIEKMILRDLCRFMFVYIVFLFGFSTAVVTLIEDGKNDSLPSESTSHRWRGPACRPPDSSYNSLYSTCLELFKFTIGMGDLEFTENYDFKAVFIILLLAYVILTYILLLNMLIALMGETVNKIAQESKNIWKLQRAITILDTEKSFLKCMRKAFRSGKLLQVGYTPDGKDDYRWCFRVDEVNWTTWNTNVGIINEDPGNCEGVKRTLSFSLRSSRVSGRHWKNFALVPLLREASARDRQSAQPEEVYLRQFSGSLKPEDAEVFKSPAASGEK

[13] = target: T6, Transient receptor potential cation channel subfamily V member 1; assay: Agonist activity at ionomycin-stimulated TRPV1 (unknown origin) channel desensitization in presence of capsaicin
[14] = target: T3, Transient receptor potential cation channel subfamily A member 1; assay: Agonist activity at TRPA1 (unknown origin) activation
[15] = target: T7, Transient receptor potential cation channel subfamily V member 2 (Homo sapiens) (UniProt Q9Y5S1); assay: Agonist activity at ionomycin-stimulated TRPV2 (unknown origin) activation assessed as efficacy relative to control; settings: filed as agonist
T7 sequence (whole entry): T1 sequence (Q9Y5S1 whole entry)

[16] = target: T8, G-protein coupled receptor 55 (Homo sapiens, UniProt Q9Y2T6); assay: Antagonist activity at GPR55 (unknown origin) expressed in HEK293 cells assessed as LPI-stimulated ERK1/2 phosphorylation; type: functional, cell-based
T8 sequence (Q9Y2T6 whole entry): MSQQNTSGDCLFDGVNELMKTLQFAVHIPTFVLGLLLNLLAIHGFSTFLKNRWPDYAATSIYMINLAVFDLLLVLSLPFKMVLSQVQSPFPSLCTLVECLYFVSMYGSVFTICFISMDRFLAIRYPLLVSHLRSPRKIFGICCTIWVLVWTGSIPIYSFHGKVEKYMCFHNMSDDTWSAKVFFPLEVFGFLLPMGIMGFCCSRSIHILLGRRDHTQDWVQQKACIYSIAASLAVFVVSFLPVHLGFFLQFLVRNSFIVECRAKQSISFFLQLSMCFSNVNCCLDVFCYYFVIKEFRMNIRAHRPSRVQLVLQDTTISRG

[17] = target: T8, G-protein coupled receptor 55; assay: Antagonist activity at GPR55 (unknown origin) expressed in HEK293 cells assessed as LPI-stimulated ERK1/2 phosphorylation by measuring efficacy relative to control; type: functional, cell-based; settings: filed as antagonist
[18] = target: 5-hydroxytryptamine receptor 1A (Homo sapiens) (UniProt P08908); assay: Displacement of [35S]GTPgammaS from 5HT1A in […] by measuring efficacy incubated for 60 mins by radioligand binding assay relative to control; type: cell-based
Cannabinoid receptor 2 [19] = target: T9, Cannabinoid receptor 2 (Homo sapiens, UniProt P34972); assay: Inhibition of human CB2 receptor; type: functional; settings: concentration not given here
T9 sequence (P34972 whole entry): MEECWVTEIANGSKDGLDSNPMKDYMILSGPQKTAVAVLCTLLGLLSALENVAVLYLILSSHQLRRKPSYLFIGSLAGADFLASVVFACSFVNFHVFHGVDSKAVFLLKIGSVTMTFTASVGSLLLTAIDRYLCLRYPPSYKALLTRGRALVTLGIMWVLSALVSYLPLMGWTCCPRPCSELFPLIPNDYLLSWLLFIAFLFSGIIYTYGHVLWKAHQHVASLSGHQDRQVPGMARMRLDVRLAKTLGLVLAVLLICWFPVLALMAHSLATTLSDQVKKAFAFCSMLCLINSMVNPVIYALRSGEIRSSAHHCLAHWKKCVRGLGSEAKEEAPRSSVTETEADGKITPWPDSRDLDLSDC

[20] = target: 5-hydroxytryptamine receptor 1A (Rattus norvegicus, UniProt P19327); assay: Displacement of [35S]GTPgammaS from 5HT1A in Sprague-Dawley rat brainstem incubated for 60 mins by radioligand binding assay; type: tissue-based
Sequence of 5-hydroxytryptamine receptor 1A (Rattus norvegicus, UniProt P19327) (P19327 whole entry): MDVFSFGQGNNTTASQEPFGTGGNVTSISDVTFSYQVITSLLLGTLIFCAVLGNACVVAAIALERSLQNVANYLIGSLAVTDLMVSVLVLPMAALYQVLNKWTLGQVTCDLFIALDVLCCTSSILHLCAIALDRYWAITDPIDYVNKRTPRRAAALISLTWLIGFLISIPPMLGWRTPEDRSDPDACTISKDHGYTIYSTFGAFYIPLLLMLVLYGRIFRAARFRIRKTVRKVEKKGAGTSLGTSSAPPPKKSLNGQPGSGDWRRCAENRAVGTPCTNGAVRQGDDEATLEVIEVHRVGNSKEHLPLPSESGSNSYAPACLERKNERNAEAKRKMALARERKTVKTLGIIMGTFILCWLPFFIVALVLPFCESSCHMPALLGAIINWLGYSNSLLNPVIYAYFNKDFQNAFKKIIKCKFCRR

[21] = target: 5-hydroxytryptamine receptor 1A (Homo sapiens, UniProt P08908); assay: Displacement of [35S]GTPgammaS from 5HT1A in […] incubated for 60 mins by radioligand binding assay; type: cell-based
Cannabinoid receptor 1 [22] = target: Cannabinoid receptor 1 (Homo sapiens, UniProt P21554); assay: Binding affinity to CB1 (unknown origin) receptor assessed as inhibition constant
Cannabinoid receptor 1 [23] = target: Cannabinoid receptor 1 (Mus musculus, UniProt P47746); assay: Agonist activity at CB1 receptor in albino MF1 mouse vas deferens assessed as inhibition of electrically evoked vas deferens contraction by incubated for 13 mins followed by electrical stimulation for 2 mins; type: functional
[24] = target: Transient receptor potential cation channel subfamily M member 8 (Homo sapiens, UniProt Q7Z2W7); assay: Antagonist activity at TRPM8 (unknown origin) ion channel
Sequence of Transient receptor potential cation channel subfamily M member 8 (Q7Z2W7 whole entry): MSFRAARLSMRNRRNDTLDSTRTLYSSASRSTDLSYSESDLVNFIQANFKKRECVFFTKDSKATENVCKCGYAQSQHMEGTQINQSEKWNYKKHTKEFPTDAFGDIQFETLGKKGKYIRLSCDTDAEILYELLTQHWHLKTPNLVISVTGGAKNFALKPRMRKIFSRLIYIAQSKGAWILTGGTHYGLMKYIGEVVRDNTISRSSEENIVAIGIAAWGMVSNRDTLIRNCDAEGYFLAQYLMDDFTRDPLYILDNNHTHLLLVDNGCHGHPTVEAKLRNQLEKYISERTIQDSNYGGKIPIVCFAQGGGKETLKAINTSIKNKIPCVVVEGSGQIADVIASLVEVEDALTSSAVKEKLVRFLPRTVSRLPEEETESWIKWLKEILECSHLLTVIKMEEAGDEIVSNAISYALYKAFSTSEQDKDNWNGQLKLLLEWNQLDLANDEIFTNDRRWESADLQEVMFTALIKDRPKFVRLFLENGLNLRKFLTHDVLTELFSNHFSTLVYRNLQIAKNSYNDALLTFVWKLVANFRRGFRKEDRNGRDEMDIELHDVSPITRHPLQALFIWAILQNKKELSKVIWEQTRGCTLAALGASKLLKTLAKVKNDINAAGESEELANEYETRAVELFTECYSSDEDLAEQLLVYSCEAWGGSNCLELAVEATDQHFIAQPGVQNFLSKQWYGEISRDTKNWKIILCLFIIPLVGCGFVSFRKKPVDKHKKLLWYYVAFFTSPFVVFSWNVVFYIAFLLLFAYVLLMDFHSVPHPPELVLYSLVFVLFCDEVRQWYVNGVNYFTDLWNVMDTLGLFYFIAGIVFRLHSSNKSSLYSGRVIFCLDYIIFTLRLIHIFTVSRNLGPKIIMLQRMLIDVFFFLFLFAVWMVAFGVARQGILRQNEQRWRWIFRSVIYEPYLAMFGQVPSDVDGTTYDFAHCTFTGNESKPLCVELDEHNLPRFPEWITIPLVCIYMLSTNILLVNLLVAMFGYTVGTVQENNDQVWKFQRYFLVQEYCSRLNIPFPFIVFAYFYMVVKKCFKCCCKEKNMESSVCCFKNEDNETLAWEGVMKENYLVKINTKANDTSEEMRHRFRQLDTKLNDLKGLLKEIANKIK

[25] = target: Transient receptor potential cation channel subfamily V member 6 (Homo sapiens, UniProt Q9H1D0); assay: Inhibition of TRPV6 channel (unknown origin) by Patch-clamp assay
[26] = target: T6, Transient receptor potential cation channel subfamily V member 1; assay: Agonist activity at TRPV1 (unknown origin) ion channel
[27] = target: 5-hydroxytryptamine receptor 1A (Rattus norvegicus) (UniProt P19327); assay: Displacement of [35S]GTPgammaS from 5HT1A in Sprague-Dawley rat brainstem by measuring efficacy incubated for 60 mins by radioligand binding assay relative to control; type: tissue-based
Cannabinoid receptor 2 [28] = target: T9, Cannabinoid receptor 2; assay: Agonist activity at CB2 receptor (unknown origin) expressed in CHO cell membranes assessed as increase in [35S]GTPgammaS binding incubated for 60 mins by liquid scintillation spectrometry analysis; type: functional, Membrane
Cannabinoid receptor 2 [29] = target: T9, Cannabinoid receptor 2; assay: Agonist activity at human CB2 receptor transfected in CHO cells assessed as inhibition of cyclic AMP production; type: functional, cell-based
Cannabinoid receptor 2 [30] = target: T9, Cannabinoid receptor 2; assay: Agonist activity at CB2 receptor (unknown origin) expressed in CHO cell membranes assessed as increase in [35S]GTPgammaS binding by measuring efficacy incubated for 60 mins by liquid scintillation spectrometry analysis relative to control; type: functional; settings: Membrane, filed as agonist
[31] = target: Transient receptor potential cation channel subfamily V member 5 (Homo sapiens, UniProt Q9NQA5); assay: Inhibition of TRPV5 channel (unknown origin) by Patch-clamp assay
[32] = target: T3, Transient receptor potential cation channel subfamily A member 1; assay: Agonist activity at TRPA1 (unknown origin) ion channel
[33] = target: T6, Transient receptor potential cation channel subfamily V member 1; assay: Agonist activity at ionomycin-stimulated TRPV1 (unknown origin) activation

## CCCc1cc(O)c2c(c1)OC(C)(C)c1ccc(C)cc1-2
[1]
  IC50: 2200 nM
[2]
  IC50: 1600 nM
[3]
  IC50: 500 nM
[4]
  Efficacy: 123%
[5]
  IC50: 170 nM
[6]
  EC50: 7.3 µM
[7]
  IC50: 4 µM
[8]
  EC50: 3.5 µM
[9]
  Efficacy: 37%
[10]
  Efficacy: 78%
[11]
  EC50: 3.1 µM
[12]
  Efficacy: 50%
[13]
  IC50: 11.9 µM
[14]
  EC50: 200 nM
[15]
  Efficacy: 79%

## CCCc1cc(O)c2c(c1)OC(C)(C)[C@@H]1CCC(C)=C[C@@H]21 [TETRAHYDROCANNABIVARIN]
[1]
  IC50: 800 nM
[16]
  EC50: 880 nM
[17]
  Efficacy: 61%
[18]
  Efficacy: 134%
[2]
  IC50: 3000 nM
[3]
  IC50: 870 nM
[4]
  Efficacy: 243%
Cannabinoid receptor 2 [19]
  inhibition: 0.143%
[20]
  EC50: 5.4 nM
[21]
  EC50: 28 nM
Cannabinoid receptor 1 [22]
  Ki: 1000 nM
Cannabinoid receptor 1 [23]
  EC50: 12.7 µM
[5]
  IC50: 3070 nM
[24]
  IC50: 20 nM
[25]
  IC50: 9.4 µM
[26]
  EC50: 200 nM
[6]
  EC50: 6.4 µM
[7]
  IC50: 3.2 µM
[27]
  Efficacy: 35%
Cannabinoid receptor 2 [28]
  EC50: 98 nM
[8]
  EC50: 3.8 µM
[9]; filed as agonist
  Efficacy: 60%
[10]
  Efficacy: 72%
Cannabinoid receptor 2 [29]
  EC50: 38 nM
Cannabinoid receptor 2 [30]
  Efficacy: 40%
[31]
  IC50: 4.8 µM
[11]
  EC50: 4.1 µM
[12]
  Efficacy: 68%
[13]
  IC50: 1.3 µM
[14]
  EC50: 1500 nM
[32]
  EC50: 70 nM
[15]
  Efficacy: 74%
[33]
  EC50: 1500 nM
